Data: patent US10981906B2, “Substituted pyrrolopyridine JAK inhibitors and methods of making and using the same” (ACLARIS THERAPEUTICS, INC., priority 2017, dated 2021)
Structures can show the parent of a compound that is named as a salt. Where two headings read alike, the source gives them in different places.

What was measured:
[1] = test system: IFNγ stimulated STAT1 phosphorylation on Tyr701 (JAK1/2); experiment: JAK1/2 cellular target modulation: IFNγ stimulated phospho-STAT1 in PBMC; type: cell-based; conditions: Homo sapiens, PBMC, IFNγ 10 ng/ml, 1 hour compound preincubation, read-out: Infγ-STAT1 IC50
Excerpt: (§1) Target modulation was based upon the ability of a compound to inhibit JAK isoform specific phosphorylation of selected substrates. IL-2 stimulated STAT5 phosphorylation on Tyr694 was used to assess JAK1/3 compound selectivity. GM-CSF stimulated STAT5 phosphorylation on Tyr694 was used to assess JAK2 compound selectivity. IFNγ stimulated STAT1 phosphorylation on Tyr701 was used to assess JAK1/2 compound selectivity. For all three assays, human PBMC from frozen stocks were thawed, pelleted, resuspended in complete media (90% RPMI, 10% heat inactivated FBS, 10 mM HEPES, 47 μM 2-ME, pen/strep) and placed in wells of a 96 well V-bottom plate at 200,000 per well in 120 μl complete media. Compounds were added as 15 μl per well of 10× working stock solutions in complete media with 1% DMSO (or medium with 1% DMSO for controls) and placed on a plate shaker in a 37° C. incubator with 5% CO2 for 1 hour with gentle shaking (setting of 3). Stimulation used the addition of soluble cytokines. For the JAK1/3 phospho-STAT5 assay, 15 μl of 10× working stock recombinant human IL-2 was added to a final concentration of 25 ng/ml. For the JAK2 phospho-STAT5 assay, 15 μl of 10× working stock recombinant human GM-CSF was added to a final concentration of 5 ng/ml. For the JAK1/2 phospho-STAT1 assay, 15 μl of 10× working stock of recombinant human IFNγ was added to a final concentration of 10 ng/ml. Plates were then placed back on the plate shaker in the incubator for an additional 5, 5 and 10 minutes respectively upon which the plates were removed from the incubator, sealed with a plate sealer and the cells pelleted at 400×g for 5 minutes. After pelleting, the media was removed by aspiration and the cells were lysed in ELISA specific cell lysis buffer. The levels of phospho-STAT5 were determined using a Phospho (Tyr694)/Total STAT5a,b Whole Cell Lysate kit from Meso Scale Discovery. Levels of phospho-STAT1 were determined using a CST-PathScan Phospho-STAT1 (Tyr701) Sandwich ELISA kit.

[2] = test system: IL-2 stimulated STAT5 phosphorylation on Tyr694 (JAK1/3); experiment: JAK1/3 cellular target modulation: IL-2 stimulated phospho-STAT5 in PBMC; type: cell-based; conditions: IL-2 25 ng/ml, 1 hour compound preincubation, read-out: IL2-STAT5 Inhibition IC50
Excerpt: as §1

JAK1 = JAK1 (Homo sapiens (Human), UniProt P23458); experiment: JAK1 enzyme activity assay (Thermo Fisher SelectScreen Z-lyte); type: biochemical; conditions: 1 hour kinase reaction, read-out: JAK1 Inhibition IC50
Chain of JAK1 (P23458 whole entry): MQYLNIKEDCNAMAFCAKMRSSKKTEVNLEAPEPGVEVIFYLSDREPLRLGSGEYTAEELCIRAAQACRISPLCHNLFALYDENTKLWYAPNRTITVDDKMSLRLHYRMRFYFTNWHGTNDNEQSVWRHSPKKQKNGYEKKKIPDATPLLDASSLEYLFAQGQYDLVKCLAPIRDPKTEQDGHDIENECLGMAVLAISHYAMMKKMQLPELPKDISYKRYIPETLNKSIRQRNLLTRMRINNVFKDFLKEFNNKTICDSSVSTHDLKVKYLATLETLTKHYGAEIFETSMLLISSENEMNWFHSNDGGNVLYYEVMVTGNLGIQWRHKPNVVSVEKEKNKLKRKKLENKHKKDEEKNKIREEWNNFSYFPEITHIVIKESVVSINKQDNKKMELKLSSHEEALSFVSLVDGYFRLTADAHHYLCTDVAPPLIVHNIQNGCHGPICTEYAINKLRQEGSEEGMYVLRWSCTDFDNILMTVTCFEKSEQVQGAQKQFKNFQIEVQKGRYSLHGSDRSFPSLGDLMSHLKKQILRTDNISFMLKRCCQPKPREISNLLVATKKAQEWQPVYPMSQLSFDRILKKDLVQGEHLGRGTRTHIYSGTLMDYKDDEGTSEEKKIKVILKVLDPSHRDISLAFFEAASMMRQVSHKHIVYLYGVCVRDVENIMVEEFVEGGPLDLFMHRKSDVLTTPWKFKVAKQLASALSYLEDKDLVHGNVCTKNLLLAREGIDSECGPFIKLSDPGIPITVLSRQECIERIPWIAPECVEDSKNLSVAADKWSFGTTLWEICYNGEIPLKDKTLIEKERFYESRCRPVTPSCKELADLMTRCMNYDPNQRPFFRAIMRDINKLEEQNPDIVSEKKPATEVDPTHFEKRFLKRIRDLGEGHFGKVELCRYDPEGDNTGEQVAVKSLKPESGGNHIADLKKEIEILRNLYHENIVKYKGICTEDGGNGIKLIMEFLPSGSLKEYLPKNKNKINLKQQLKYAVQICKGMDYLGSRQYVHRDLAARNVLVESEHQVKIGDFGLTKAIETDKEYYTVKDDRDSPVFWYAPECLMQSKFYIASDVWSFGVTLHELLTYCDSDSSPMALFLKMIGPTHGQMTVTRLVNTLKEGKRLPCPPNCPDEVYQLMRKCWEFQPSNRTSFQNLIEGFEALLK
Description: The inhibitory potency of candidate compounds of JAK1 done at Thermo Fisher Scientific in their Selectscreen using a Z-lyte assay. The 2×JAK1/Tyr 06 mixture is prepared in 50 mM HEPES pH 6.5, 0.01% BRIJ-35, 10 mM MgCl2, 1 mM EGTA, 0.02% NaN3. The final 10 μL of the Kinase Reaction consists of 21.2-91.5 ng JAK1 and 2 μM Tyr 06 in 50 mM HEPES pH 7.0, 0.01% BRIJ-35, 10 mM MgCl2, 1 mM EGTA, 0.01% NaN3. After the 1 hour Kinase Reaction incubation, 5 μL of a 1:128 dilution of Development Reagent is added.
(§2) Background signal is defined in the absence of enzyme and uninhibited signal is defined in the presence of vehicle (2% DMSO) alone. Compounds were evaluated in an 11 point dose-response ranging from […] to 0.34 nM. IC50 values of compounds are determined using a 4 parameter logistical fit of emission ratio as a function of the concentration of compound.

JAK3 (a.a. 781-1124) = JAK3 (a.a. 781-1124) (Homo sapiens (Human), UniProt P52333); experiment: JAK3 enzyme activity assay (SRCtide phosphorylation, Caliper); type: biochemical; conditions: 2.5 nM JAK3, 1 μM SRCtide, 1 uM ATP, 40 minutes; read-out: JAK3 Inhibition IC50
Chain of JAK3 (a.a. 781-1124) (P52333 781-1124): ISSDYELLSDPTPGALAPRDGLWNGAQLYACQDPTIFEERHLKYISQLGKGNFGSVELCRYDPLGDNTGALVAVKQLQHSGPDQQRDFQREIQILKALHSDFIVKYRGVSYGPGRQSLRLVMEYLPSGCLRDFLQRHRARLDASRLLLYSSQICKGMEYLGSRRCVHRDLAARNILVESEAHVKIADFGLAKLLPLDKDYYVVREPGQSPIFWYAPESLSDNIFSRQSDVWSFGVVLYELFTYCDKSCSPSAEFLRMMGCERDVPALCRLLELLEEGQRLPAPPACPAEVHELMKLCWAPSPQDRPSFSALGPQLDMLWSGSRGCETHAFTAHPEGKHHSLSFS
Description: The activity of JAK3 (a.a. 781-1124, ThermoFisher) was quantified by measuring the phosphorylation of SRCtide (FAM-GEEPLYWSFPAKKK-NH2). Kinase reactions were run in a 384-well Greiner plate with 2% final DMSO concentration under the buffer conditions of 20 mM HEPES, pH 7.5, 10 mM MgCl2, 0.01% BSA, and 0.0005% Tween-20. The kinase reaction components were 2.5 nM JAK3, 1 μM SRCtide peptide and 1 uM ATP. Examples were tested in dose-response starting at 2 μM (11 concentrations, 3-fold serial dilution, duplicate reactions). The reactions were incubated at room temperature for 40 minutes, then stopped by adding a 1:1 volume of 30 mM EDTA in 20 mM HEPES, pH 7.5 (15 mM EDTA final). After the reaction was stopped, the phosphorylated and unphosphorylated peptides were separated and quantified using a Caliper LC3000/EZ-Reader system and HTS Well Analyzer Software (Caliper, A PerkinElmer Company, Hopkinton, Mass.). GraFit (Erithacus Software Ltd., Horley, U.K.) was used to calculate inhibitor potency by fitting dose-response data to the 4-parameter logistical IC50 equation.
as §2

Row | SMILES | IC50 [1] | IC50 ([2]; Homo sapiens, PBMC) | IC50 (JAK1) | IC50 (JAK3 (a.a. 781-1124)) | IC50 ([2]; human PBMC)
1 | CCOC(=O)c1cnc2[nH]ccc2c1NC1CCC(CCC#N)C1 (mixture of isomers) [Example 153, Ethyl 4-((3-(2-cyanoethyl)cyclopentyl)amino)-1H-pyrrolo[2,3-b]pyridine-5-carboxylate as a mixture of 2 stereoisomers] | 100 to 1000 nM | ≤ 100 nM | ≤ 10 nM | ≤ 10 nM | 
2 | CCCOC(=O)c1cnc2[nH]ccc2c1N[C@H]1CCC[C@@H](CCC#N)C1 (racemic) [Example 139, (rac) (cis) propyl 4-((3-(2-cyanoethyl)cyclohexyl)amino)-1H-pyrrolo[2,3-b]pyridine-5-carboxylate] | > 1000 nM | 100 to 1000 nM | ≤ 10 nM | ≤ 10 nM | 
3 | COCCOC(=O)c1cnc2[nH]ccc2c1N[C@H]1CCC[C@H](CCC#N)C1 (racemic) [Example 148, racemic, trans-2-methoxyethyl 4-((3-(2-cyanoethyl)cyclohexyl)amino)-1H-pyrrolo[2,3-b]pyridine-5-carboxylate] | 100 to 1000 nM | 100 to 1000 nM | 10 to 100 nM | ≤ 10 nM | 
4 | CCOC(=O)c1cnc2[nH]ccc2c1N(C)[C@@H]1CC[C@@H](O)C1 (single isomer, unassigned) [Example 68B, (trans)-Ethyl 4-((-3-hydroxycyclopentyl)(methyl)amino)-1H-pyrrolo[2,3-b]pyridine-5-carboxylate] |  | > 1000 nM | 100 to 1000 nM | 10 to 100 nM | 
5 | CCOC(=O)c1cnc2[nH]ccc2c1N(C)[C@H]1CC[C@H](OC(=O)CC#N)C1 (single isomer, unassigned) [Example 69, (trans)-ethyl 4-((3-(2-cyanoacetoxy)cyclopentyl)(methyl)amino)-1H-pyrrolo[2,3-b]pyridine-5-carboxylate] |  |  | 100 to 1000 nM | 100 to 1000 nM | > 1000 nM
6 | CCOC(=O)c1cnc2[nH]ccc2c1N(C)[C@H]1CC[C@H](OC(=O)CC#N)C1 (single isomer, unassigned) [Example 70, (trans)-ethyl 4-((3-(2-cyanoacetoxy)cyclopentyl)(methyl)amino)-1H-pyrrolo[2,3-b]pyridine-5-carboxylate] | > 1000 nM |  | 10 to 100 nM | 100 to 1000 nM | 100 to 1000 nM
7 | C[C@@H]1CCN(C(=O)CC#N)C[C@@H]1Nc1c(C(=O)O)cnc2[nH]ccc12 [Example 120, 4-(((3R,4R)-1-(2-cyanoacetyl)-4-methylpiperidin-3-yl)amino)-1H-pyrrolo[2,3-b]pyridine-5-carboxylic acid trifluoroacetic acid Salt] |  | > 1000 nM | 100 to 1000 nM | 100 to 1000 nM | 
8 | N#CCC(=O)N1CCC[C@@H](Nc2c(C(=O)O)cnc3[nH]ccc23)C1 [Example 121, (R)-4-((1-(2-cyanoacetyl)piperidin-3-yl)amino)-1H-pyrrolo[2,3-b]pyridine-5-carboxylic acid trifluoroacetic acid Salt] |  | > 1000 nM | 100 to 1000 nM | 100 to 1000 nM | 
9 | CCOC(=O)c1cnc2[nH]ccc2c1N[C@H]1CCCN(C(=O)CC#N)C1 [Example 143, ethyl (S)-4-((1-(2-cyanoacetyl)piperidin-3-yl)amino)-1H-pyrrolo[2,3-b]pyridine-5-carboxylate] |  | > 1000 nM | 100 to 1000 nM | 10 to 100 nM | 

Second part, led by results:

Row | IC50 [1] | IC50 ([2]; Homo sapiens, PBMC) | IC50 (JAK1) | IC50 (JAK3 (a.a. 781-1124)) | SMILES | IC50 ([2]; human PBMC)
10 | 100 to 1000 nM | ≤ 100 nM | ≤ 10 nM | ≤ 10 nM | CCOC(=O)c1cnc2[nH]ccc2c1N[C@H]1CCC[C@@H](CCC#N)C1 (racemic) [Example 133, (rac)-(cis)-ethyl 4-((3-(2-cyanoethyl)cyclohexyl)amino)-1H-pyrrolo[2,3-b]pyridine-5-carboxylate] | 
11 | 100 to 1000 nM | ≤ 100 nM | ≤ 10 nM | ≤ 10 nM | CCOC(=O)c1cnc2[nH]ccc2c1N[C@H]1CCC[C@H](CCC#N)C1 (racemic) [Example 134, (rac)-(trans)-Ethyl 4-((3-(2-cyanoethyl)cyclohexyl)amino)-1H-pyrrolo[2,3-b]pyridine-5-carboxylate] | 
12 | 100 to 1000 nM | 100 to 1000 nM | ≤ 10 nM | ≤ 10 nM | CCCOC(=O)c1cnc2[nH]ccc2c1N[C@H]1CCC[C@H](CCC#N)C1 (racemic) [Example 140, (rac)-(trans)-propyl 4-((3-(2-cyanoethyl)cyclohexyl)amino)-1H-pyrrolo[2,3-b]pyridine-5-carboxylate] | 
13 | 100 to 1000 nM | ≤ 100 nM | ≤ 10 nM | ≤ 10 nM | COC(=O)c1cnc2[nH]ccc2c1N[C@H]1CCC[C@H](CCC#N)C1 (racemic) [Example 151, trans-racemic-methyl 4-((3-(2-cyanoethyl)cyclohexyl)amino)-1H-pyrrolo[2,3-b]pyridine-5-carboxylate] | 
14 | 100 to 1000 nM | ≤ 100 nM | ≤ 10 nM | ≤ 10 nM | COC(=O)c1cnc2[nH]ccc2c1N[C@@H]1CCC[C@H](CCC#N)C1 (racemic) [Example 152, cis-racemic-methyl 4-((3-(2-cyanoethyl)cyclohexyl)amino)-1H-pyrrolo[2,3-b]pyridine-5-carboxylate] | 
15 |  | > 1000 nM | 100 to 1000 nM | 100 to 1000 nM | CCOC(=O)c1cnc2[nH]ccc2c1N(C)[C@H]1CC[C@H](O)C1 (single isomer, unassigned) [Example 68A, (trans)-Ethyl 4-((-3-hydroxycyclopentyl)(methyl)amino)-1H-pyrrolo[2,3-b] pyridine-5-carboxylate] | 
16 |  |  |  | 10 to 100 nM | CCOC(=O)c1cnc2[nH]ccc2c1N(C)[C@H]1CC[C@H](CS(=O)(=O)NC)CC1 [Example 94, ethyl 4-(methyl((1r,4r)-4-((N-methylsulfamoyl)methyl)cyclohexyl)amino)-1H-pyrrolo[2,3-b]pyridine-5-carboxylate] | 
17 |  | > 1000 nM | 100 to 1000 nM | 100 to 1000 nM | C[C@@H]1CCN(C(=O)CC#N)C[C@@H]1Nc1c(C(=O)OC(C)(C)C)cnc2[nH]ccc12 [Example 119, tert-butyl 4-(((3R,4R)-1-(2-cyanoacetyl)-4-methylpiperidin-3-yl)amino)-1H-pyrrolo[2,3-b]pyridine-5-carboxylate] | 
18 |  | 100 to 1000 nM |  | 10 to 100 nM | CCOC(=O)c1cnc2[nH]ccc2c1N[C@@H]1CCCN(C(=O)[C@@H]2CC2(F)F)C1 [Example 156, ethyl 4-(((R)-1-((S)-2,2-difluorocyclopropane-1-carbonyl)piperidin-3-yl)amino)-1H-pyrrolo[2,3-b]pyridine-5-carboxylate] | 
